XC50 data for 84 compounds are collected here from ChEMBL document CHEMBL1157539, “Thousands of chemical starting points for antimalarial lead identification” (Nature, 2010).

For this test, the system named is Plasmodium falciparum. Description: GSK_TCMDC: Inhibition of Plasmodium falciparum 3D7 in whole erythrocytes, using parasite LDH activity as an index of growth. As to conditions: Plasmodium falciparum, 3D7. The class given is functional, organism-based.
`CN1CCC(N(Cc2ccc(-c3ccc(C(F)(F)F)cc3)cc2)C(=O)Cn2c(SCc3cccc(F)c3F)cc(=O)c3c2CCC3)CC1`: the XC50 was 161 nM.

Regarding `c1ccc2c(Nc3ccc(Cc4ccc(Nc5c6ccccc6nc6ccccc56)cc4)cc3)c3ccccc3nc2c1`, the XC50 came out at 162 nM.

For `NC(=O)c1cnc2cc(-c3ccoc3)ccc2c1Nc1ccc(NC(=O)Nc2ccccc2Cl)cc1`, the XC50 stood at 538 nM.

`CN(C)Cc1ccc(-c2cccc(NC(=O)c3ccc(Cl)cc3)c2)cc1` came in with an XC50 of 900 nM.

With `COc1ccc(CCNCCCCNCCc2ccc(OC)c3ccccc23)c2ccccc12`, the XC50 turned out to be 453 nM.

On to `CCC(CC)(CCC#N)CN(C[C@@H](O)[C@H](Cc1ccccc1)NC(=O)OC(C)(C)C)S(=O)(=O)c1ccc(OC)cc1`, for which the XC50 was 1040 nM.

Compound `Nc1c(Cl)cc(C(O)CNCCCCCOCCc2ccc3ccccc3n2)cc1Cl` (centres undefined) registered an XC50 of 1020 nM.

On to `Cc1[nH]c(C)c(-c2ccc(-c3ccc(OC(F)(F)F)cc3)nc2)c(=O)c1Br`, for which the XC50 was 249 nM.

In turn, `O=C(Nc1cccc(-c2cccc(-c3nc4ccccc4[nH]3)c2)c1)c1cccnc1` displayed an XC50 of 646 nM.

`O=C(Nc1ccccc1Cc1ccccc1)c1ccccc1[N+](=O)[O-]` showed an XC50 of 860 nM.

The compound `O=C(Nc1ccc(-c2cccc(-c3nc4ccccc4[nH]3)c2)cc1)Nc1ccsc1` came in with an XC50 of 246 nM.

`CC(C)C[C@@H](C(=O)N[C@H](C(=O)Nc1nccs1)C(C)(C)C)[C@H](CCC(F)(F)F)N(O)C=O` registered an XC50 of 598 nM.

`CO/N=C(\C)c1ccc2c(c1)CCN(CCC1CCC(NC(=O)c3cccc(-c4noc(C)n4)c3)CC1)CC2` (centres undefined): the XC50 is 244 nM.

In turn, `N#Cc1ccc2c(c1)CCN(CCC1CCC(NC(=O)/C=C/c3c[nH]c4ccc(F)cc34)CC1)CC2` (centres undefined) displayed an XC50 of 692 nM.

For `COc1ccc(OC)c(NC(=O)c2c(-c3c(F)cccc3Cl)noc2C)c1`, the XC50 was 701 nM.

As to `COc1ccccc1NC(=O)Nc1cccc(-c2ccc(-c3nc4cccc(C)c4[nH]3)s2)c1`, the XC50 came to 579 nM.

Compound `CCCN(CCCCNC(=O)c1ccc(-c2cccnc2)cc1)C1CCc2c(O)cccc2C1` (centres undefined) had an XC50 of 1120 nM.

With `Cc1ccc2nc(C)n(C3CCN(C(=O)Cc4ccc(F)c(F)c4)CC3)c2c1`, the XC50 stood at 474 nM.

On to `CCCCN(CCCC)CCCN(CCCN(CCCC)CCCC)c1cc(C)nc(Nc2ccc(Br)cc2)n1`, for which the XC50 worked out at 131 nM.

Consider `CCCCCOc1ccc(CC(C)NCC(O)c2cccc(Cl)c2)cc1` (centres undefined), for which the XC50 is 653 nM.

Take `COc1ccc2nccc([C@@H](O)CN3CCC(NCc4ccc5c(c4)NC(=O)CO5)CC3)c2c1`: the XC50 is 1660 nM.

`CC(=O)Nc1ccc(CN(Cc2cccc(OC(C)(C)C)c2)Cc2ccc3c(c2)OCCO3)cc1` came in with an XC50 of 136 nM.

Take `CCCc1cc(Cc2cnc(N)nc2N)cc(CCC)c1OCCCCCC(=O)OCC`: the XC50 is 51.7 nM.

Turning to `Cc1ccc(CN2CCCN(Cc3cccc(C(=O)Nc4ccc(C(C)(C)C)cc4)c3)CC2)s1`, the XC50 came out at 1130 nM.

Turning to `CNCc1cccc2nc(-c3csc(Cc4cc(Cl)ccc4OCC(C)C)n3)[nH]c12`, the XC50 amounted to 718 nM.

On to `Cc1cccc2nc(-c3ccc(-c4ccc(CNCc5cccc(N)c5)cc4)cc3)[nH]c12`, for which the XC50 was 565 nM.

`O=C(/C=C/c1ccc(Cl)c(Cl)c1)NCCCCCN1CCC(NC(=O)NCCc2ccccc2)CC1` returned an XC50 of 722 nM.

In turn, `O=C(NC1CCCCC1)N(Cc1cccc(-c2ccc(CNCCc3ccccc3)cc2)c1)C1CCN(Cc2ccccc2)CC1` had an XC50 of 650 nM.

`O=S(=O)(Nc1ccc(CCN2CCCCC2CCN2CCCC2)cc1)c1cccc2cccnc12` (centres undefined) had an XC50 of 1300 nM.

`CN(CCCCCN1CCC(NC(=O)Nc2ccc(Oc3ccccc3)cc2)C1)C(=O)/C=C/c1ccc(Cl)c(Cl)c1` (centres undefined) had an XC50 of 421 nM.

Consider `COc1cc2nc(NCCc3ccccc3)nc(NC(C)c3ccccc3)c2cc1OC` (centres undefined), for which the XC50 was 281 nM.

Consider `COc1ccc(Cc2c(C)nc3nc(N)nc(N)c3c2C)cc1`, for which the XC50 turned out to be 284 nM.

`O=C(C=Cc1ccc(Cl)c(Cl)c1)NCCCCCN1CCCC(CCCNC(=O)C2CC2c2ccccc2)C1` (centres undefined): the XC50 was found to be 1130 nM.

In turn, `COc1ccc(CNCc2ccc(F)cc2)cc1-c1cccc(S(=O)(=O)NCCN2CCCC2)c1` registered an XC50 of 805 nM.

In the case of `COc1cccc(CNC[C@@H](O)[C@H](Cc2ccccc2)NC(=O)c2cc(NC(C)C)cc(N3CCCCS3(=O)=O)c2)c1`, the XC50 was 784 nM.

Compound `COc1ccc(-c2ccc(NC(=O)c3cccc(F)c3)cc2)cc1CNC(C)C` gave an XC50 of 808 nM.

Consider `FC(F)(F)c1ccc(NC(=S)N2CCC(CN3CCC(c4c[nH]c5ccccc45)CC3)CC2)cc1`, for which the XC50 turned out to be 663 nM.

With `CC(C)c1cccc(OCC2CCN(c3ncc(C(=O)NC4CC4)cc3Cl)CC2)c1`, the XC50 is 681 nM.

Compound `CCCCc1ccc(-c2ccc3[nH]c(C)c(Br)c(=O)c3c2)cc1` registered an XC50 of 105 nM.

In the case of `O=C(/C=C/c1ccc(Cl)c(Cl)c1)N1CCN(C(=O)Nc2cccc(C(F)(F)F)c2)CC1`, the XC50 amounted to 704 nM.

For the compound `O=C(Nc1ccc(Cl)cc1)c1cc(Cl)ccc1NC(=O)C1(c2ccc(Cl)cc2)CCCC1`, the XC50 amounted to 1100 nM.

The compound `CC(CN1CCN(CC(c2ccc(F)cc2)N2CCN(C)CC2)CC1)C(=O)c1ccc(O)cc1` (centres undefined) displayed an XC50 of 672 nM.

For the compound `CC(C)CCCC(C)(C)NC[C@@H](O)[C@H](Cc1ccccc1)NC(=O)c1cccc(OCC2CC2)c1`, the XC50 is 843 nM.

For `Cc1ccc(NC(=O)c2cccc(N3CCN(c4ccncc4)CC3)c2)cc1F`, the XC50 was determined as 1300 nM.

Turning to `Cc1c(C(=O)N2CCc3cc4nccc(N5CCN6CCC[C@H]6C5)c4cc32)cnn1-c1ccc(C#N)cc1`, the XC50 was determined as 994 nM.

Consider `CN1CCCN(c2ccnc3cc4c(cc23)N(C(=O)c2ccccc2Cl)CC4)CC1`, for which the XC50 was 1180 nM.

Turning to `O=C(/C=C/c1ccc(C(F)(F)F)cc1)NCCCCCN1CCN(C(=O)Nc2ccc(Cl)cc2)CC1`, the XC50 was determined as 1010 nM.

Regarding `CCCC(C)NC(=O)/C=C/c1ccccc1-c1cccc(OC)c1` (centres undefined), the XC50 came out at 1250 nM.

For the compound `O=C(NCc1ccc(Cl)cc1)c1ccc(CN2CCCN(CC3CCCCC3)CC2)cc1`, the XC50 is 1700 nM.

Take `COc1ccc(C(=O)Nc2ccc3nc(N4CCCCC4)cc(C)c3c2)cc1[N+](=O)[O-]`: the XC50 stood at 779 nM.

Compound `OC(CNc1ccnc(Nc2ccc(Cl)cc2)n1)c1ccc(C(F)(F)F)cc1` (centres undefined) registered an XC50 of 771 nM.

Compound `O=C(/C=C/c1ccc(Cl)c(Cl)c1)NC1CCC(CN2CCC(c3cc4ccccc4[nH]3)CC2)CC1` (centres undefined) displayed an XC50 of 987 nM.

In turn, `Fc1cccc(COc2ccc(Nc3ncnc4sc(C#CCNC5CCC5)cc34)cc2Cl)c1` displayed an XC50 of 875 nM.

The compound `COc1ccc(S(=O)(=O)Nc2cc(C)cc(Br)c2OC)cc1N1CCN(C(=O)C(Cl)(Cl)Cl)CC1` gave an XC50 of 871 nM.

Take `COC1CCC(C(=O)Nc2ccc(-c3cccc(-c4nc5cccc(C)c5[nH]4)c3)cc2)CC1` (centres undefined): the XC50 is 585 nM.

In the case of `Cc1ccc2sc(N(CCCn3ccnc3)C(=O)c3ccco3)nc2c1C`, the XC50 came out at 966 nM.

In the case of `CN(C)c1cccc(CCNCCc2c[nH]c3ccc(Cl)cc23)c1`, the XC50 stood at 436 nM.

For `CN(CCCCNC(=O)c1ccc(-c2ccccc2)cc1)C1CCc2c(O)cccc2C1` (centres undefined), the XC50 turned out to be 724 nM.

As for `COc1ccc(CNC2Cc3ccccc3C2)cc1-c1ccc(S(=O)(=O)NCc2ccccc2)s1`, the XC50 came to 832 nM.

`CC1=C(C(=O)Nc2ccccc2)C(c2ccc([N+](=O)[O-])cc2)n2ncc(C(=O)Nc3ccccc3)c2N1` (centres undefined) displayed an XC50 of 1240 nM.

`NCCNS(=O)(=O)c1ccc(-c2ccnc3[nH]c(-c4ccncc4)cc23)cc1` displayed an XC50 of 840 nM.

As for `O=C(Nc1ccccc1)c1ccc(N2CCC(COc3cccc(C(F)(F)F)c3)CC2)nc1`, the XC50 turned out to be 298 nM.

In turn, `CS(=O)(=O)Nc1ccc2[nH]cc(C3CC4CCC(C3)N4CC3CCC(NC(=O)/C=C/c4ccc(Cl)c(Cl)c4)CC3)c2c1` (centres undefined) gave an XC50 of 872 nM.

Turning to `N#Cc1c(Cl)cccc1Oc1ccc(S(=O)(=O)N2CCC(CN3CCC(c4c[nH]c5ccccc45)CC3)CC2)cc1`, the XC50 is 745 nM.

For `O=C(Nc1ccc([N+](=O)[O-])cc1Cl)c1cc(Br)cc(Cc2ccccc2)c1O`, the XC50 turned out to be 1290 nM.

With `CCOC(=O)c1c(SCc2cccc(F)c2F)[nH]c2ccccc2c1=O`, the XC50 turned out to be 644 nM.

The compound `O=C(NCCCCN1CCC(c2ccc3c(c2OCCO)CCCC3)CC1)c1ccc2oc(-c3ccc(C(F)(F)F)cc3)cc2c1` had an XC50 of 340 nM.

`Cc1ccccc1Nc1nc(Nc2ccccc2)c2ccccc2n1` displayed an XC50 of 998 nM.

For `O=C(/C=C/c1ccc(Cl)c(Cl)c1)NCCCCCCN1CCCN(C(=O)Nc2cccc(C(F)(F)F)c2)CC1`, the XC50 turned out to be 793 nM.

Consider `O=C(/C=C/c1ccc(Cl)c(Cl)c1)N1CCC(NCc2c[nH]c3ccccc23)CC1`, for which the XC50 amounted to 1070 nM.

The compound `COc1ccc(NC(=O)c2ccc(-c3nc(-c4cccc(C(F)(F)F)c4)cs3)cc2)cc1N1CCN(C)CC1` came in with an XC50 of 818 nM.

Turning to `Cn1ccnc1CNC(=O)c1ccc(-c2cccc(-c3nc4cc(C(F)(F)F)ccc4[nH]3)c2)cc1`, the XC50 stood at 723 nM.

Compound `NC(=O)c1c(Cl)nc2ccccc2c1Cl` gave an XC50 of 960 nM.

For the compound `CC1(C)NC(N)=NC(=N)N1OCCCNC(=O)c1ccc(C(=O)NCCCON2C(=N)N=C(N)NC2(C)C)cc1`, the XC50 was found to be 21.6 nM.

For `Cc1cc2nc(-c3cccc(C(=O)NC4CCN(Cc5ccccc5)CC4)c3)[nH]c2cc1C`, the XC50 was 828 nM.

Consider `Cc1ccc(Nc2nc(C)cc(N3CCN(CCc4ccccc4)CC3)n2)cc1`, for which the XC50 stood at 972 nM.

As to `Cc1csc(-c2ccc3[nH]cc(C4=CCN(C)CC4)c3c2)n1`, the XC50 turned out to be 754 nM.

As to `COc1ccc(C(=O)N2CCC3(CC2)C(=O)N(CC(=O)NCC2CCCCC2)CN3c2ccccc2)c(OC)c1`, the XC50 turned out to be 119 nM.

`CC(C)c1ccc(CN2CCC(CNC(=O)c3cc(-c4ccccc4F)cs3)C2)cc1` (centres undefined) yielded an XC50 of 993 nM.

`O=C(Nc1ccc(Cl)c(Cl)c1)N1CCc2cc3nccc(N4CCN5CCC[C@H]5C4)c3cc21` showed an XC50 of 628 nM.

As for `COc1ccc(-c2cc(C(=O)N3CCc4ccccc43)c3ccccc3n2)cc1OC`, the XC50 stood at 327 nM.

As for `O=S(=O)(Nc1cccc(CCN2CCC(N3CCCCC3)CC2)c1)c1cccc2ccccc12`, the XC50 is 937 nM.

`COc1cc(Nc2nccc(N3CCC(NC(=O)Nc4cc(C)ccc4C)C3)n2)cc(OC)c1OC` (centres undefined) had an XC50 of 1120 nM.

For the compound `COc1ccc(NC(=O)c2csc(-c3cc(NC(=O)c4ccnc(N5CCCC5)c4)ccc3C)c2)cc1N1CCN(C)CC1`, the XC50 came to 660 nM.
